Measured values from patent publication US6916782B1, “Gene coding for heliomicine and use thereof” (priority 1998, dated 2005).
Bridge positions count the residues as written; N and C are the ends. Ends that are not written are not given here.

Tests used:
female mice = assay: Study of acute toxicity, intravenous injection
Procedure: Groups of 4 female mice were treated by intravenous injection of solutions of heliomicine (SEQ ID NO:2) in saline solution at doses of 1 and 10 mg/kg.

Neurospora crassa = conditions: range [a]-[b], start of growth to no growth, 48 h, 30° C.
Procedure: (§5) The antifungal activity was detected by a test for inhibition of growth in a liquid medium. The spores of the fungi to be tested were suspended in a culture medium of the “potato-glucose” type. Preferably, 12 g of Potato Dextrose Broth medium (Difco) were used per 1 l of demineralized water. Two antibiotics were added to the culture medium: tetracycline (final concentration of 10 μg/ml) and cefotaxime (100 μg/ml). 10 μl of each fraction to be analysed are deposited in microtitre plates in the presence of 90 μl of culture medium containing the spores (at a final concentration of 104 spores/ml). The incubation was carried out in a humid chamber at 30° C. for 48 hours. Fungal growth was observed under a light microscope after 24 h and quantified after 48 hours by measuring the absorbance at 600 nm with the aid of a spectrophotometric microtitre plate reader.
(§6) The different mutated heliomicines were analyzed for their antifungal activity under the conditions described for the reference heliomicine against the following strains: Neurospora crassa, Fusarium culmorum and Nectria haematococca.

Trichoderma viride = assay: Inhibition of growth in liquid medium, filamentous fungi (MIC); type: cell-based; conditions: range [a]-[b], 48 h, 30° C.
From the text: (§1) This methodology was used to test for the antifungal molecules during the various purification steps, for the determination of the activity spectrum of the peptide and for the determination of the minimum inhibitory concentration (MIC) at which the peptide was active. The MIC was expressed as the concentration range [a]-[b] where [a] was the minimum concentration where the start of growth is observed and [b] the concentration for which no growth was observed.
(§2) The antifungal activity was detected by a test for inhibition of growth in a liquid medium. The spores of the fungi to be tested were suspended in a culture medium of the “potato-glucose” type. Preferably, 12 g of Potato Dextrose Broth medium (Difco) were used per 1 l of demineralized water. Two antibiotics were added to the culture medium: tetracycline (final concentration of 10 μg/ml) and cefotaxime (100 μg/ml). 10 μl of each fraction to be analysed are deposited in microtitre plates in the presence of 90 μl of culture medium containing the spores (at a final concentration of […]). The incubation was carried out in a humid chamber at 30° C. for 48 hours. Fungal growth was observed under a light microscope after 24 h and quantified after 48 hours by measuring the absorbance at 600 nm with the aid of a spectrophotometric microtitre plate reader. […]

Aspergillus fumigatus = assay: as above; type: cell-based; conditions: range [a]-[b], 48 h, 30° C.
From the text: as §1, §2

Fusarium culmorum = conditions: range [a]-[b], 48 h, 30° C.
Procedure: as §5, §6

Candida tropicalis = assay: Test for detection of activity against yeasts (MIC); type: cell-based; conditions: range [a]-[b]
From the text: as §1
(§3) The various yeast strains were incubated in a “Sabouraud” type culture medium and incubated at 30° C. for 24 h with gentle stirring. The test sample (10 μl) was deposited in microtitre plate wells to which there were added 90 μl of a dilute yeast culture whose density was adjusted to OD 600=0.001. Growth was evaluated by measuring the absorbance at 600 nm with the aid of a spectrophotometric microtitre plate reader.
(§4) - yeasts tested: Candida albicans, C. glabrata, C. tropicalis, C. krusei, C. inconspicua, Cryptococcus neoformans, Cryp. albidus, Saccharomyces cerevisiae (gift from Dr. H. Koenig, Hôpital civil, Strasbourg).

Candida albicans = assay: as above; type: cell-based; conditions: range [a]-[b]
From the text: as §1, §3, §4

Candida inconspicua = assay: as above; type: cell-based; conditions: range [a]-[b]
From the text: as §1, §3, §4

Candida krusei = assay: as above; type: cell-based; conditions: range [a]-[b]
From the text: as §1, §3, §4

Cryptococcus albidus = assay: as above; type: cell-based; conditions: range [a]-[b]
From the text: as §1, §3, §4

Cryptococcus neoformans = assay: as above; type: cell-based; conditions: range [a]-[b]
From the text: as §1, §3, §4

Nectria haematococca = conditions: range [a]-[b], 48 h, 30° C.
Procedure: as §5, §6

Compound	Toxic effects (female mice; intravenous injection, at 5 days at 1 mg)	Mortality (female mice; intravenous injection, at 5 days at 10 mg) [%]	MIC of heliomicine (Neurospora crassa) [µM]	MIC of heliomicine (Trichoderma viride) [µM]	MIC of heliomicine (Aspergillus fumigatus) [µM]	MIC of heliomicine (Fusarium culmorum) [µM]	MIC of heliomicine (Candida tropicalis) [µM]	MIC of heliomicine (Candida albicans) [µM]	MIC of heliomicine (Candida inconspicua) [µM]	MIC of heliomicine (Candida krusei) [µM]	MIC of heliomicine (Cryptococcus albidus) [µM]	MIC of heliomicine (Cryptococcus neoformans) [µM]	Acute toxicity (female mice; intravenous injection in saline solution, doses of 1 and 10 mg/kg)	MIC of heliomicine (Nectria haematococca) [µM]
CC[C@H](C)[C@H](NC(=O)CN)C(=O)NCC(=O)N[C@@H](C)C(=O)N[C@H](C(=O)N[C@@H](CC(C)C)C(=O)N[C@@H](CCCCN)C(=O)N[C@H](C(=O)N[C@@H](CC(C)C)C(=O)N[C@H](C(=O)N[C@H](C(=O)NCC(=O)N[C@@H](CC(C)C)C(=O)N1CCC[C@H]1C(=O)N[C@@H](C)C(=O)N[C@@H](CC(C)C)C(=O)N[C@H](C(=O)N[C@@H](CO)C(=O)N[C@@H](Cc1c[nH]c2ccccc12)C(=O)N[C@H](C(=O)N[C@@H](CCCCN)C(=O)N[C@@H](CCCNC(=N)N)C(=O)N[C@@H](CCCCN)C(=O)N[C@@H](CCCNC(=N)N)C(=O)N[C@@H](CCC(N)=O)C(=O)N[C@@H](CCC(N)=O)C(N)=O)[C@@H](C)CC)[C@@H](C)CC)[C@@H](C)O)[C@@H](C)O)C(C)C)C(C)C [mellitin]	significant effects	100	–	–	–	–	–	–	–	–	–	–	–	–
DKLIGSCVWGAVNYTSDCNGECKRRGYKGGHCGSFANVNCWCET (disulfide 7-32, 18-40, 22-42) [heliomicine]	–	–	0.1 to 0.2	1.5 to 3	6 to 12.5	0.2 to 0.4	2.5 to 5	2.5 to 5	5 to 10	10 to 20	5 to 10	2.5 to 5	No toxicity was demonstrated	0.4 to 0.8
